The numbers were not newly measured in US20230028307A1, “TREATMENT OF NEUROLOGICAL DISORDERS WITH AVERMECTINS” (Equilibre BioPharmaceuticals BV, priority 2020, published 2023), which cites them from elsewhere.

Data set [1] relates to episodes of epileptic attack. As to conditions: patients suffering from onchoceriasis treated with ivermectin.
For data set [2] the following is noted: humans, relatively large doses.

Regarding ivermectin, the “episodes of epileptic attack” value in data set [1] was “reduced”. Also, in data set [2], the side effects entry is listed as “no significant side effects”.
